The values that follow come from PubChem BioAssay (NCI).

Structures are written as SMILES.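 96-well plates; 48 h exposure; 5 concentrations. Endpoints by linear interpolation between flanking doses. Not reached: highest tested concentration assigned. TGI marks complete inhibition of growth.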

Test systems include OVCAR-5 ovarian; OVCAR-3 ovarian; KM12 colon; NCI-H226 lung; CCRF-CEM leukemia; LOX IMVI melanoma; HCT-116 colon; HL-60(TB) leukemia; MDA-MB-231 breast; NCI/ADR-RES ovarian; PC-3 prostate; SK-OV-3 ovarian; MALME-3M melanoma; OVCAR-4 ovarian; CAKI-1 renal; A549 NSCLC; TK-10 renal; U251 CNS; HCC-2998 colon.
Holding throughout (test): DTP human tumour cell line panel, 48 h

In general, TGI refers to the concentration at which net growth stops. Lower therefore signals more potent growth arrest. Consider `COc1ccc(OC)c(-c2nc3n(c2/C=C2/C(=O)Nc4ccccc42)CCS3)c1`, for which the TGI with OVCAR-5 ovarian, with OVCAR-3 ovarian, with KM12 colon, in the assay with NCI-H226 lung, with CCRF-CEM leukemia and in the assay with LOX IMVI melanoma was above 100 µM in each case. Further, the TGI was above 100 µM in the assay on HCT-116 colon; above 100 µM with HL-60(TB) leukemia; 92.3 µM in the assay on MDA-MB-231 breast; above 100 µM with NCI/ADR-RES ovarian; above 100 µM with PC-3 prostate; above 100 µM in the assay on SK-OV-3 ovarian. Also, the TGI with MALME-3M melanoma, with OVCAR-4 ovarian, in the assay with CAKI-1 renal, in the assay on A549 NSCLC, in the assay with TK-10 renal and in the assay with U251 CNS was above 100 µM in each case.

As to `CC(CC[C@@H](O)C(C)(C)O)C1[C@@H](O)CC2(C)C3CC(O)C4C(C)(C)[C@@H](OC5OC(CO)C(O)C(O)C5O)CC[C@@]45C[C@@]35CC[C@]12C` (stereo partly specified), the TGI in the assay on OVCAR-5 ovarian, in the assay with OVCAR-3 ovarian, in the assay with KM12 colon, with NCI-H226 lung, with CCRF-CEM leukemia and in the assay with HCT-116 colon was above 10 µM each time. The TGI in the assay on HL-60(TB) leukemia, in the assay on MDA-MB-231 breast, with NCI/ADR-RES ovarian, in the assay with PC-3 prostate, with SK-OV-3 ovarian and with MALME-3M melanoma was above 10 µM throughout. The TGI with HCC-2998 colon, in the assay with OVCAR-4 ovarian, with CAKI-1 renal, in the assay with A549 NSCLC, with TK-10 renal and in the assay with U251 CNS was above 10 µM throughout.

As for `C/C(=C(/C)c1ccc(O)cc1)c1ccc(O)cc1`, the TGI in the assay on OVCAR-5 ovarian, with OVCAR-3 ovarian, in the assay with KM12 colon, in the assay with NCI-H226 lung, in the assay on CCRF-CEM leukemia and with HCT-116 colon was above 100 µM throughout. For the same molecule, the TGI is 81.4 µM in the assay on HL-60(TB) leukemia; above 100 µM in the assay with MDA-MB-231 breast; above 100 µM with NCI/ADR-RES ovarian; above 100 µM with PC-3 prostate; above 100 µM in the assay on SK-OV-3 ovarian; above 100 µM in the assay with MALME-3M melanoma. The TGI with HCC-2998 colon, with CAKI-1 renal, with A549 NSCLC, in the assay on TK-10 renal and with U251 CNS was above 100 µM throughout.

Consider `COc1c2cc(C(C)(C)C)cc1Cc1cccc(c1OCc1cccc([N+](=O)[O-])c1)Cc1cc(C(C)(C)C)cc(c1OC)Cc1cccc(c1OCc1cccc([N+](=O)[O-])c1)Cc1cc(C(C)(C)C)cc(c1OC)Cc1cccc(c1OCc1cccc([N+](=O)[O-])c1)C2`, for which the TGI in the assay on OVCAR-5 ovarian is above 50 µM; with OVCAR-3 ovarian, above 50 µM; in the assay on KM12 colon, above 50 µM; in the assay with CCRF-CEM leukemia, above 5 µM; in the assay on HCT-116 colon, above 50 µM; in the assay on HL-60(TB) leukemia, above 50 µM. The TGI in the assay with MDA-MB-231 breast, in the assay with NCI/ADR-RES ovarian, in the assay with PC-3 prostate, in the assay with MALME-3M melanoma, in the assay with HCC-2998 colon and in the assay with CAKI-1 renal was above 50 µM in each case. In addition, the TGI with A549 NSCLC and in the assay on U251 CNS was above 50 µM in each case.

`O=c1c2ccccc2nc(-c2cc3c(cc2Cl)Sc2nccn2S3(=O)=O)n1-c1ccccc1`: the TGI is above 100 µM in the assay on OVCAR-5 ovarian; 29.4 µM in the assay on OVCAR-3 ovarian; 24.7 µM with KM12 colon; above 100 µM with NCI-H226 lung; above 100 µM in the assay on LOX IMVI melanoma; 29.8 µM with HCT-116 colon. Further, the TGI is 15.5 µM in the assay with HL-60(TB) leukemia; 38.2 µM in the assay on MDA-MB-231 breast; 46.8 µM with NCI/ADR-RES ovarian; 30.8 µM in the assay on PC-3 prostate; above 100 µM in the assay on SK-OV-3 ovarian; above 100 µM in the assay on MALME-3M melanoma. Further, the TGI with HCC-2998 colon was 31 µM; in the assay with OVCAR-4 ovarian, 44.8 µM; with CAKI-1 renal, above 100 µM; with A549 NSCLC, above 100 µM; in the assay with TK-10 renal it was 49.9 µM; with U251 CNS, 30.5 µM.

As for `CCc1cccc(C(C)(C)C)c1NC(=S)N/C=C(/C#N)C(N)=O`, the TGI in the assay on OVCAR-5 ovarian, in the assay with OVCAR-3 ovarian, in the assay on KM12 colon, in the assay with NCI-H226 lung, with CCRF-CEM leukemia and in the assay on LOX IMVI melanoma was above 100 µM in each case. Also, the TGI with HCT-116 colon, in the assay on HL-60(TB) leukemia, with MDA-MB-231 breast, in the assay on NCI/ADR-RES ovarian, in the assay on PC-3 prostate and with SK-OV-3 ovarian was above 100 µM each time. For the same molecule, the TGI in the assay with MALME-3M melanoma, with HCC-2998 colon, in the assay with OVCAR-4 ovarian, in the assay on CAKI-1 renal, with A549 NSCLC and with U251 CNS was above 100 µM in each case.

As to `CN(CCNC(=O)c1nn(-c2ccccc2)c2c1Cc1ccccc1-2)CCNC(=O)c1nn(-c2ccccc2)c2c1Cc1ccccc1-2`, the TGI with OVCAR-5 ovarian stood at 6.8 µM; in the assay on OVCAR-3 ovarian, 3.52 µM; in the assay with KM12 colon it was 3.69 µM; in the assay with CCRF-CEM leukemia, 4.68 µM; in the assay on LOX IMVI melanoma it was 3.32 µM; with HCT-116 colon, 3.13 µM. In addition, the TGI with HL-60(TB) leukemia stood at 2.91 µM; in the assay on MDA-MB-231 breast, 3.39 µM; in the assay on NCI/ADR-RES ovarian, 6.36 µM; in the assay with PC-3 prostate, 4.81 µM; with SK-OV-3 ovarian it was 4.31 µM; in the assay with MALME-3M melanoma, 3.34 µM. Also, the TGI in the assay with HCC-2998 colon turned out to be 3.13 µM; in the assay with OVCAR-4 ovarian, 4.48 µM; in the assay with CAKI-1 renal it was 7.28 µM; with A549 NSCLC, 4.93 µM; with TK-10 renal it was 4.3 µM; in the assay with U251 CNS, 3.09 µM.
